Results taken from ChEMBL document CHEMBL3885861, “Open TG-GATES”.

Species: Rattus norvegicus
Experiment: Open TG-GATES - Regimen: Single
Format: toxicity, organism-based, Sprague-Dawley
Parameters: regimen Single, gender Male, age 6 weeks
Settings: in vivo, po, route gavage; for APTT / Bas / Eos / Fbg / Hb / Ht / Lym / MCH / MCHC / MCV / Mono / Neu / PT / Plat / Ret / WBC: tissue Blood; for KIDNEY_L / KIDNEY_R / KIDNEY_TOTAL: tissue Kidney; for LIVER: tissue Liver; for ALP / ALT / AST / BUN / CRE / DBIL / GLC / IP / K / LDH / Na / PL / RALB / TBIL / TC / TG / TP / gamma-GTP / Ca: tissue Plasma
[1] = 0 mg/kg, 3 h, dose level Control
[2] = 0 mg/kg, 6 h, dose level Control
[3] = 0 mg/kg, 9 h, dose level Control
[4] = 0 mg/kg, 24 h, dose level Control

CN(C)CCCN1c2ccccc2CCc2ccc(Cl)cc21 [CLOMIPRAMINE]
TERMINAL_BW [1]: 213.4 g
APTT [1]: 23.8 s
Bas [1]: 0.4%
Eos [1]: 0.8%
Fbg [1]: 259.6 mg/dL
Hb [1]: 13.8 g/dL
Ht [1]: 42.8%
Lym [1]: 77.4%
MCH [1]: 21.4 pg
MCHC [1]: 32.3%
MCV [1]: 66.4 fL
Mono [1]: 3.6%
Neu [1]: 16.8%
PT [1]: 13.6 s
Plat [1]: 115.6 x10_4/uL
Ret [1]: 8.2%
WBC [1]: 86.3 x10_2/uL
KIDNEY_L [1]: 1 g
KIDNEY_R [1]: 1 g
KIDNEY_TOTAL [1]: 1.9 g
LIVER [1]: 9.4 g
ALP [1]: 1695.8 IU/L
ALT [1]: 43.8 IU/L
AST [1]: 82.8 IU/L
BUN [1]: 9.6 mg/dL
CRE [1]: 0.2 mg/dL
DBIL [1]: 0.006 mg/dL
GLC [1]: 182.4 mg/dL
IP [1]: 9.7 mg/dL
K [1]: 4.2 meq/L
LDH [1]: 98.4 IU/L
Na [1]: 140.2 meq/L
PL [1]: 140 mg/dL
RALB [1]: 2.5 g/dL
TBIL [1]: 0.074 mg/dL
TC [1]: 75.4 mg/dL
TG [1]: 54.2 mg/dL
TP [1]: 5.2 g/dL
gamma-GTP [1]: 1 IU/L
TERMINAL_BW [2]: 213.9 g
APTT [2]: 16.6 s
Bas [2]: 0%
Eos [2]: 0.8%
Fbg [2]: 254.2 mg/dL
Hb [2]: 13.7 g/dL
Ht [2]: 42.3%
Lym [2]: 76.2%
MCH [2]: 21 pg
MCHC [2]: 32.3%
MCV [2]: 65.1 fL
Mono [2]: 2.8%
Neu [2]: 19.2%
PT [2]: 13.9 s
Plat [2]: 125.3 x10_4/uL
Ret [2]: 8.3%
WBC [2]: 83.4 x10_2/uL
KIDNEY_L [2]: 1 g
KIDNEY_R [2]: 1 g
KIDNEY_TOTAL [2]: 2 g
LIVER [2]: 9.4 g
ALP [2]: 1630.4 IU/L
ALT [2]: 38.6 IU/L
AST [2]: 76.6 IU/L
BUN [2]: 9.2 mg/dL
CRE [2]: 0.2 mg/dL
Ca [2]: 10.8 mg/dL
DBIL [2]: 0.006 mg/dL
GLC [2]: 178.2 mg/dL
IP [2]: 9.8 mg/dL
K [2]: 4.2 meq/L
LDH [2]: 90 IU/L
Na [2]: 140.4 meq/L
PL [2]: 142.6 mg/dL
RALB [2]: 2.6 g/dL
TBIL [2]: 0.07 mg/dL
TC [2]: 71.8 mg/dL
TG [2]: 77.8 mg/dL
TP [2]: 5.4 g/dL
gamma-GTP [2]: 1 IU/L
TERMINAL_BW [3]: 213.6 g
APTT [3]: 16.7 s
Bas [3]: 0.2%
Eos [3]: 1%
Fbg [3]: 245 mg/dL
Hb [3]: 13.4 g/dL
Ht [3]: 41%
Lym [3]: 78.2%
MCH [3]: 21 pg
MCHC [3]: 32.6%
MCV [3]: 64.4 fL
Mono [3]: 1.6%
Neu [3]: 18%
PT [3]: 14 s
Plat [3]: 133.7 x10_4/uL
Ret [3]: 8.1%
WBC [3]: 86.1 x10_2/uL
KIDNEY_L [3]: 1 g
KIDNEY_R [3]: 1 g
KIDNEY_TOTAL [3]: 2 g
LIVER [3]: 8.5 g
ALP [3]: 1606 IU/L
ALT [3]: 39.8 IU/L
AST [3]: 79.8 IU/L
BUN [3]: 9.8 mg/dL
CRE [3]: 0.2 mg/dL
DBIL [3]: 0.008 mg/dL
GLC [3]: 181 mg/dL
IP [3]: 10.1 mg/dL
K [3]: 4 meq/L
LDH [3]: 109.8 IU/L
Na [3]: 140.6 meq/L
PL [3]: 139.2 mg/dL
RALB [3]: 2.4 g/dL
TBIL [3]: 0.07 mg/dL
TC [3]: 75.4 mg/dL
TG [3]: 51.2 mg/dL
TP [3]: 5.1 g/dL
gamma-GTP [3]: 1 IU/L
TERMINAL_BW [4]: 229.8 g
APTT [4]: 18 s
Bas [4]: 0%
Eos [4]: 0.8%
Fbg [4]: 257.8 mg/dL
Hb [4]: 13.5 g/dL
Ht [4]: 41.6%
Lym [4]: 82.6%
MCH [4]: 20.5 pg
MCHC [4]: 32.4%
MCV [4]: 63.4 fL
Mono [4]: 2.8%
Neu [4]: 12.6%
PT [4]: 13.4 s
Plat [4]: 129 x10_4/uL
Ret [4]: 7.4%
WBC [4]: 82.9 x10_2/uL
KIDNEY_L [4]: 1 g
KIDNEY_R [4]: 1 g
KIDNEY_TOTAL [4]: 2.1 g
LIVER [4]: 11 g
ALP [4]: 1743.2 IU/L
ALT [4]: 45.8 IU/L
AST [4]: 73.4 IU/L
BUN [4]: 14 mg/dL
CRE [4]: 0.2 mg/dL
Ca [4]: 10.9 mg/dL
DBIL [4]: 0.01 mg/dL
GLC [4]: 176.4 mg/dL
IP [4]: 8.2 mg/dL
K [4]: 4.1 meq/L
LDH [4]: 80.2 IU/L
Na [4]: 140.8 meq/L
PL [4]: 161.6 mg/dL
RALB [4]: 2.6 g/dL
TBIL [4]: 0.062 mg/dL
TC [4]: 83.2 mg/dL
TP [4]: 5.5 g/dL
gamma-GTP [4]: 1 IU/L
TERMINAL_BW (10 mg/kg, 3 h, dose level Low): 216.3 g
